Source: patent US20100093612A1, “INTEGRIN TARGETED CYCLOPEPTIDE LIGANDS, THEIR PREPARATION AND USE” (priority 2007, published 2010)

What was measured:
αvβ5 integrin receptor = biological target: T1, αvβ5 integrin receptor (Homo sapiens, UniProt P06756+P18084); assay: Solid-phase receptor-binding assay, competition with [125I]-echistatin, αvβ5; conditions: IC50±SD, average of three or more independent determinations, 0.1 nM [125I]echistatin
T1 construct: purchased Chemicon International Inc., Temecula, Calif
Protocol: (§1) Integrin-coated 96-well plates were incubated with the ligand in the presence of serially diluted competing compounds.
(§2) Solid-Phase Receptor-Binding Assay (General Procedure). The receptor binding assays were performed as described previously (Kumar, C. C.; et al. J. Pharmacol. Exp. Ther. 1997, 283, 843). Purified αvβ3 and αvβ5 receptors (Chemicon International Inc., Temecula, Calif.) were diluted to 500 ng/mL and 1000 ng/mL, respectively, in coating buffer [20 mM Tris-HCl (pH 7.4), 150 mM NaCl, 2 mM CaCl2, 1 mM MgCl2 and 1 mM MnCl2]. An aliquot of diluted receptors (100 μL/well) was added to 96-well microtiter plates and incubated overnight at 4° C. Coating solution was removed and 200 μL of blocking solution (coating buffer plus 1% BSA) were added to the wells and incubated for additional 2 h at room temperature. After incubation, the plates were rinsed three times with 200 μL of blocking-binding solution and incubated for 3 h at room temperature with 0.05 nM and 0.1 nM [^125I]Echistatin (Amersham Pharmacia) for αvβ3 and αvβ5 receptor binding assays, respectively. After incubation, the plates were sealed and counted in the γ-counter (Packard).

αvβ3 integrin receptor = biological target: T2, αvβ3 integrin receptor (Homo sapiens, UniProt P05106+P06756); assay: Solid-phase receptor-binding assay, competition with [125I]-echistatin, αvβ3; conditions: IC50 in the receptor high-affinity state; IC50±SD, average of three or more independent determinations; 0.05 nM [125I]echistatin
T2 construct: purchased Chemicon International Inc., Temecula, Calif
Protocol: as §1, §2

[1] = no high-affinity-state footnote

| SMILES | IC50 (αvβ5 integrin receptor; [1]) [nM] | IC50 (αvβ3 integrin receptor) [nM] | IC50 (αvβ5 integrin receptor; IC50 in the receptor high-affinity state) [nM] |
| --- | --- | --- | --- |
| N=C(N)NCCC[C@@H]1NC(=O)[C@@H]2C[C@@H](CN2C(=O)c2ccccc2)NC(=O)[C@H](CC(=O)O)NC(=O)CNC1=O [(If), c[-Arg-Gly-Asp-AMPRO2-]] | 86.6 ± 5.7 | 0.16 ± 0.03 |  |
| CCC(=O)N1C[C@@H]2C[C@H]1C(=O)N[C@@H](CCCNC(=N)N)C(=O)NCC(=O)N[C@@H](CC(=O)O)C(=O)N2 [(Ih), c[Arg-Gly-Asp-AMPRO4-]] | 94 ± 13 | 0.03 ± 0.01 |  |
| N=C(N)NCCC[C@@H]1NC(=O)[C@@H]2C[C@H](CN2C(=O)c2ccccc2)NC(=O)[C@H](CC(=O)O)NC(=O)CNC1=O [(Ii), c[-Arg-Gly-Asp-AMPRO5-]] | 89.2 ± 5.4 | 0.91 ± 0.4 |  |
| CCCCCCCN1C[C@@H]2C[C@H]1C(=O)N[C@@H](CCCNC(=N)N)C(=O)NCC(=O)N[C@@H](CC(=O)O)C(=O)N2 [(Ip), c[-Arg-Gly-Asp-AMPRO15-]] |  | 0.08 ± 0.02 | 0.88 ± 0.23 |
